Source: patent EP3250181B1, “MINOXIDIL-BASED PHARMACEUTICAL FORMULATION FOR THE TOPICAL USE AND KIT THEREOF” (Farmalabor S.r.l., priority 2014, dated 2016)

Legend:
[1] = Stability, first study: real storage conditions, HPLC; settings: formulation A, room temperature, both in the presence and in the absence of light
[2] = Stability, second study: cold-warm cycle in climate room for 60 hours; settings: formulation A, 4°C/25°C/40°C cycle, dark or UV/Vis light

stability of Minoxidil in the gel [1]: stable in the gel for 5 weeks
Compound: Nc1cc(N2CCCCC2)nc(N)[n+]1[O-] [Minoxidil]
chemical stability after cold-heat shock [2]: chemical stability of Minoxidil into the gel also after a cold-heat shock
